Assay results from patent US20150196580A1, “USE OF DEFIBROTIDE FOR THE INHIBITION OF HEPARANASE” (GENTIUM SPA, priority 2006, published 2015).
Entries after “also recorded” stand apart in the source; their conditions may differ.

Columns and labels:
[1] = tested on: Heparanase gene expression; experiment: Real-Time PCR of Heparanase gene expression in HMEC cells; assay type: cell-based, human; conditions: DF 150 μg/ml, 24 h, vs saline control, triplicate
Description: (§1) To evaluate the effect of DF either on Heparanase expression and its activity, the U266 and HMEC cells were incubated for 24 h with DF at different concentrations or saline (control cells). After incubation with Defibrotide, the cells were washed with phosphate-buffered saline (PBS) pH 7.4, and different U266 and HMEC samples were prepared for different experiments.
(§2) RNA has been isolated from U266 and HMEC cells (1.5×10^5 Cells/ml) treated with saline (control) or DF at doses of 150 and 400 μg/ml for 24 h. To isolate the RNA were used the RNeasy Mini Kit from Qiagen according the manufacture's instructions.
(§3) The 1% agarose gel electrophoresis, stained with Ethidium Bromide, was performed on all samples to check for presence of clear 28S and 18S ribosomal subunit bands. […]
(§4) In order to perform the Real Time PCR was used the SYBER Green PCR Master Mix Reagent (SYBER Green PCR--Bio-Rad). Direct detection of polymerase chain reaction (PCR) product was monitored by measuring the increase in fluorescence caused by the binding of SYBER Green to double-stranded DNA. […]
Real-Time PCR was performed on cDNAs prepared from HMEC cells treated with saline (control) or DF at dose of 150 μg/ml. The experiments were performed in triplicate and the results are expressed as mRNA levels normalized by the housekeeping actin gene.

[2] = target: T1, Heparanase (Homo sapiens, UniProt Q9Y251); experiment: Heparanase activity assay (Heparan Degrading Enzyme Assay Kit) in U266 extracts; assay type: cell-based; conditions: U266 cells, DF 50, 100 and 150 μg/ml, 24 h, vs saline control, triplicate
T1 construct: The Heparanase activity was measured in U266 extracts (1×10^5 Cell/ml of extraction buffer) by a commercial Heparan Degrading Enzyme Kit; endogenous in cells; host or cells: U266 myeloma cells (cell extract)
T1 sequence (Q9Y251 158-543 limits assumed): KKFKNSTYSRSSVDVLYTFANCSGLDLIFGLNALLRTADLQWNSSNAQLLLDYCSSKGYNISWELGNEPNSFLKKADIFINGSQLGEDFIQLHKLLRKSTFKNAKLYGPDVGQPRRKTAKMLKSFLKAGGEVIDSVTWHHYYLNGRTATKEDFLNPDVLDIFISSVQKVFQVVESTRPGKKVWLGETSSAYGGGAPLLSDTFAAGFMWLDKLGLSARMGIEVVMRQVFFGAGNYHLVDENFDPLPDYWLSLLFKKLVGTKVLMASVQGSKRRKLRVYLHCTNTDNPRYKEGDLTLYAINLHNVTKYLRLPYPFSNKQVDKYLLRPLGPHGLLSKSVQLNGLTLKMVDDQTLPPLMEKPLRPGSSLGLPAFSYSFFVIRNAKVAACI
T1 sequence (Q9Y251 36-109 limits assumed): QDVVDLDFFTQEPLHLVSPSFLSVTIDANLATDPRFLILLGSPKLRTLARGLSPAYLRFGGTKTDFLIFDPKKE
Description: as §1
The Heparanase activity was measured in U266 extracts (1×10^5 Cell/ml of extraction buffer) by a commercial Heparan Degrading Enzyme Kit (Takara-bio Inc.) according to manufacturer's instruction. The U266 cells have been treated with saline (control) or DF at doses of 50, 100 and 150 μg/ml for 24 h.
Heparan Degrading Enzyme Assay Kit measure the activity of heparan degrading enzyme in cultured cells, utilizing the property that heparan-like molecules and bFGF (basic fibroblast growth factor) combine each other. CBD-FGF is a fusion protein of cell-binding domain of human fibronectin and human fibroblast growth factor (Takara-bio Inc.). […]
The activity of Heparanase were measured using the Heparanse Degrading Enzyme Assay kit on U266 cells treated with saline (control) or Defibrotide at dose of 50, 100 and 150 μg/ml. The experiments were performed in triplicate and the activity of Heparanase is shown with decrease of absorbance.

[3] = tested on: Heparanase gene expression; experiment: Real-Time PCR of Heparanase gene expression in U266 myeloma cells; assay type: cell-based; conditions: DF 150 and 400 μg/ml, 24 h, vs saline control, triplicate
Description: as §1, §2, §3, §4
Real-Time PCR was performed on cDNAs prepared from U266 cells treated with saline (control) or DF at dose of 150 and 400 μg/ml. The experiments were performed in triplicate and the results are expressed as mRNA levels normalized by the housekeeping actin gene.

Substance: defibrotide [DF]
- Effect on Heparanase gene expression (mRNA levels normalized by the housekeeping actin gene) [1]: acts on Microvascular endothelial cells through altering the Heparanase gene expression; also recorded: downregulation of Heparanase gene expression on HMEC cells
- Effect on enzymatic activity of Heparanase (shown with decrease of absorbance) [2]: interferes on the Heparanase activity in the myeloma cell line; also recorded: decrease of its enzymatic activity
- Effect on Heparanase gene expression (mRNA levels normalized by the housekeeping actin gene) [3]: acts on U266 myeloma cells line through altering the Heparanase gene expression; also recorded: down regulation of Heparanase gene
